From PubChem BioAssay AID2060489 (Molecular Pharmacology Branch, DTP, NCI, 2025)

Tested on: 922993-354-T-J3-PDC complex spheroids, viability
Assay: Anticancer human tumor 922993-354-T-J3-PDC patient-derived endometrial carcinoma cell line growth inhibition [GQUAD]
Conditions: for IC50: curve of first compound; for viability, T/C: stronger effect = lower value
Outline: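 Viability of tumor cells grown as complex spheroids with endothelial and stromal cells, exposed to drug combinations. Top concentration at or near clinical Cmax (else 10 microM), diluted in half-log increments.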

[1] = second compound 0.0316 µM, first compound 0.0316 µM
[2] = second compound 0.0316 µM, first compound 0.1 µM
[3] = second compound 0.0316 µM, first compound 0.316 µM
[4] = second compound 0.0316 µM, first compound 1 µM
[5] = second compound 0.0316 µM, first compound 3.16 µM
[6] = second compound 0.0316 µM, first compound 10 µM
[7] = second compound 0.1 µM, first compound 0.0316 µM
[8] = second compound 0.1 µM, first compound 0.1 µM
[9] = second compound 0.1 µM, first compound 0.316 µM
[10] = second compound 0.1 µM, first compound 1 µM
[11] = second compound 0.1 µM, first compound 3.16 µM
[12] = second compound 0.1 µM, first compound 10 µM
[13] = second compound 0.316 µM, first compound 0.0316 µM
[14] = second compound 0.316 µM, first compound 0.1 µM
[15] = second compound 0.316 µM, first compound 0.316 µM
[16] = second compound 0.316 µM, first compound 1 µM
[17] = second compound 0.316 µM, first compound 3.16 µM
[18] = second compound 0.316 µM, first compound 10 µM
[19] = second compound 1 µM, first compound 0.0316 µM
[20] = second compound 1 µM, first compound 0.1 µM
[21] = second compound 1 µM, first compound 0.316 µM
[22] = second compound 1 µM, first compound 1 µM
[23] = second compound 1 µM, first compound 3.16 µM
[24] = second compound 1 µM, first compound 10 µM
[25] = second compound 3.16 µM, first compound 0.0316 µM
[26] = second compound 3.16 µM, first compound 0.1 µM
[27] = second compound 3.16 µM, first compound 0.316 µM
[28] = second compound 3.16 µM, first compound 1 µM
[29] = second compound 3.16 µM, first compound 3.16 µM
[30] = second compound 3.16 µM, first compound 10 µM
[31] = second compound 10 µM, first compound 0.0316 µM
[32] = second compound 10 µM, first compound 0.1 µM
[33] = second compound 10 µM, first compound 0.316 µM
[34] = second compound 10 µM, first compound 1 µM
[35] = second compound 10 µM, first compound 3.16 µM
[36] = second compound 10 µM, first compound 10 µM
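Also: spheroids exposed to compounds for seven days.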
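For viability, T/C in this document: 100% = DMSO vehicle control viability.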

## C#Cc1c(F)ccc2cc(O)cc(-c3ncc4c(N5CC6CCC(C5)N6)nc(OCC56CCCN5CC(F)C6)nc4c3F)c12 (centres undefined) + CN(C)c1ccc(Nc2c3ccc(NC(=O)CCN4CCCC4)cc3nc3cc(NC(=O)CCN4CCCC4)ccc23)cc1
Second compound 0.0316 µM
  IC50: > 10 µM
Second compound 0.1 µM
  IC50: > 10 µM
Second compound 0.316 µM
  IC50: > 10 µM
Second compound 1 µM
  IC50: > 10 µM
Second compound 3.16 µM
  IC50: > 10 µM
Second compound 10 µM
  IC50: > 10 µM
[1]
  viability, T/C: 93.8%
[2]
  viability, T/C: 78.5%
[3]
  viability, T/C: 97.2%
[4]
  viability, T/C: 86.9%
[5]
  viability, T/C: 95.3%
[6]
  viability, T/C: 81.5%
[7]
  viability, T/C: 99.4%
[8]
  viability, T/C: 89.3%
[9]
  viability, T/C: 94.3%
[10]
  viability, T/C: 100%
[11]
  viability, T/C: 82.3%
[12]
  viability, T/C: 95.9%
[13]
  viability, T/C: 71.9%
[14]
  viability, T/C: 97.4%
[15]
  viability, T/C: 97.7%
[16]
  viability, T/C: 81%
[17]
  viability, T/C: 87%
[18]
  viability, T/C: 76%
[19]
  viability, T/C: 71.4%
[20]
  viability, T/C: 86.9%
[21]
  viability, T/C: 88.7%
[22]
  viability, T/C: 85.4%
[23]
  viability, T/C: 84%
[24]
  viability, T/C: 88.1%
[25]
  viability, T/C: 116%
[26]
  viability, T/C: 102%
[27]
  viability, T/C: 129%
[28]
  viability, T/C: 100%
[29]
  viability, T/C: 108%
[30]
  viability, T/C: 92.8%
[31]
  viability, T/C: 88.3%
[32]
  viability, T/C: 133%
[33]
  viability, T/C: 108%
[34]
  viability, T/C: 133%
[35]
  viability, T/C: 104%
[36]
  viability, T/C: 94.6%

## CC(=O)O[C@H]1C(=O)[C@@]2(C)[C@H]([C@H](OC(=O)c3ccccc3)[C@]3(O)C[C@H](OC(=O)[C@H](O)[C@@H](NC(=O)c4ccccc4)c4ccccc4)C(C)=C1C3(C)C)[C@]1(OC(C)=O)CO[C@@H]1C[C@@H]2O + CN(C)c1ccc(Nc2c3ccc(NC(=O)CCN4CCCC4)cc3nc3cc(NC(=O)CCN4CCCC4)ccc23)cc1
Second compound 0.0316 µM
  IC50: 7.96 µM
Second compound 0.1 µM
  IC50: 8.65 µM
Second compound 0.316 µM
  IC50: > 10 µM
Second compound 1 µM
  IC50: > 10 µM
Second compound 3.16 µM
  IC50: > 10 µM
Second compound 10 µM
  IC50: > 10 µM
[1]
  viability, T/C: 86.5%
[2]
  viability, T/C: 79%
[3]
  viability, T/C: 104%
[4]
  viability, T/C: 104%
[5]
  viability, T/C: 65.3%
[6]
  viability, T/C: 46.2%
[7]
  viability, T/C: 83.4%
[8]
  viability, T/C: 90.2%
[9]
  viability, T/C: 113%
[10]
  viability, T/C: 101%
[11]
  viability, T/C: 67.3%
[12]
  viability, T/C: 47.5%
[13]
  viability, T/C: 73.5%
[14]
  viability, T/C: 82.3%
[15]
  viability, T/C: 116%
[16]
  viability, T/C: 85.6%
[17]
  viability, T/C: 72%
[18]
  viability, T/C: 57.5%
[19]
  viability, T/C: 81.1%
[20]
  viability, T/C: 99.5%
[21]
  viability, T/C: 96.4%
[22]
  viability, T/C: 69.5%
[23]
  viability, T/C: 80%
[24]
  viability, T/C: 51.8%
[25]
  viability, T/C: 93.7%
[26]
  viability, T/C: 116%
[27]
  viability, T/C: 103%
[28]
  viability, T/C: 92.5%
[29]
  viability, T/C: 82.6%
[30]
  viability, T/C: 53.5%
[31]
  viability, T/C: 99.7%
[32]
  viability, T/C: 122%
[33]
  viability, T/C: 125%
[34]
  viability, T/C: 130%
[35]
  viability, T/C: 77.6%
[36]
  viability, T/C: 67.1%
